Experimental findings from PubChem BioAssay (NCI) are described below.

Common to all, as to assay: growth of human tumour cells (NCI), 48 h
Assay [1] concerns BT-549 breast.
Assay [2] has as its system DU-145 prostate.
Assay [3] relates to NCI-H226 lung.
Assay [4] relates to OVCAR-5 ovarian.
For assay [5], the system named is PC-3 prostate.
For assay [6], the system named is SF-539 CNS.
The subject of assay [7] is SK-MEL-2 melanoma.
Assay [8] relates to SK-OV-3 ovarian.
Assay [9] concerns SNB-19 CNS.
The test system of assay [10] is UO-31 renal.

Values joined by “and” are separate entries in the source; they are usually repeats but may differ in a detail not shown here. Equal values may be shown once.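 Briefly, cells in 96-well plates were exposed to five compound concentrations for 48 h, and endpoints were estimated by linear interpolation. Abbreviation: GI50, concentration required for 50% inhibition of growth. At the TGI there is no net growth.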 Some results are limits rather than exact numbers.

`[Br][Pb]([c]1ccccc1)([c]1ccccc1)[c]1ccccc1`: the GI50 in assay [1] was 0.198 µM; in assay [2], 0.182 µM; in assay [3], 0.173 µM; in assay [4] it was 0.289 µM; in assay [5], 0.225 µM; in assay [6], 0.252 µM. In addition, the GI50 in assay [7] was 0.218 µM; in [8], 0.401 µM; in [9] it was 0.221 µM; in [10] it was 0.141 µM. Moreover, the TGI in assay [1] came to 0.541 µM; in assay [2], 0.37 µM; in assay [3], 0.381 µM; in assay [4], 1.22 µM; in assay [5] it was 0.515 µM; in assay [6], 0.596 µM. Also, the TGI was determined as 0.539 µM in assay [7], 1.51 µM in assay [8], 0.527 µM in [9] and 0.279 µM in assay [10].
With `CN(C)CCCN1c2ccccc2Sc2ccc(C(F)(F)F)cc21`, the GI50 in [1] was 1.77 µM; in [2] it was 1.79 µM; in assay [3] it was 1.56 µM; in assay [4], 1.63 µM; in assay [5], 1.67 µM; in [6], 1.83 µM. Further, the GI50 was 1.79 µM in assay [7], 1.53 µM in [8], 1.71 µM in [9] and 1.48 µM in assay [10]. Moreover, the TGI in assay [1] was 3.32 µM and 26.5 µM; in [2], 3.22 µM and 31.2 µM; in assay [3], 3.17 µM; in assay [4] it was 3.25 µM and 31.6 µM; in assay [5] it was 4 µM and 28.6 µM; in [7], 3.69 µM and 30.5 µM. The TGI in [9] was 3.27 µM and 28.8 µM and 30.3 µM; in assay [10], 5.38 µM and 28.3 µM and 28.9 µM.
Turning to `CC(C)(O)C1COC2=C1C(=O)c1ccccc1C2=O` (stereo not drawn), the TGI in [1] was 42.9 µM; in [2], 43.5 µM; in [3], more than 100 µM; in assay [4], 54 µM; in [5] it was more than 100 µM; in assay [6], more than 100 µM. Besides, the TGI was 88.6 µM in assay [7], more than 100 µM in [8], more than 100 µM in assay [9] and more than 100 µM in [10].
`O=c1ccc(N=Nc2ccccc2)ccc1O`: the TGI was 56.6 µM in assay [1]; 39.3 µM in assay [2]; 24.3 µM in assay [3]; 47.4 µM in assay [4]; 28.6 µM in [5]; 37.2 µM in assay [6]. Besides, the TGI in assay [7] is 47.5 µM; in [8] it was more than 100 µM; in assay [9], more than 100 µM; in [10], 70.9 µM.
In the case of `CCN(CC)c1ccc(/C=N/NC(=O)Cc2ccc(Nc3ccnc(C(F)(F)F)c3)cc2)c(O)c1`, the GI50 in assay [1] was 0.965 µM; in assay [2], 0.828 µM; in assay [3], 0.699 µM; in assay [4], 2.42 µM; in assay [5] it was 1.85 µM; in assay [6] it was 0.652 µM. In addition, the GI50 was 4.52 µM in assay [7], 0.359 µM in assay [8], 0.588 µM in assay [9] and 0.482 µM in assay [10]. The TGI in assay [1] is more than 29.2 µM; in assay [2] it was more than 100 µM; in [3] it was more than 23.5 µM; in assay [4], more than 100 µM; in [5], more than 100 µM; in assay [6] it was 7.02 µM. The TGI in assay [7] was more than 100 µM; in assay [8] it was more than 100 µM; in assay [9] it was more than 26.6 µM; in assay [10], more than 100 µM.
Regarding `COc1cc(C2CC(c3ccccc3)=NN2C=O)ccc1Oc1ccnc2cc(Cl)ccc12` (stereo not drawn), the GI50 is 2.24 µM in assay [1]; more than 100 µM in assay [2]; 5.24 µM in [3]; more than 100 µM in assay [4]; 2.8 µM in assay [5]; 10.3 µM in assay [6]. Also, the GI50 in assay [7] was 8.68 µM; in assay [8] it was 4.56 µM; in [9], 26.6 µM; in [10], 13.5 µM. The TGI in [1] was 14.1 µM; in [2], more than 100 µM; in [3], more than 100 µM; in assay [4], more than 100 µM; in [5], more than 100 µM; in assay [6], 77.9 µM. Besides, the TGI is 38.6 µM in assay [7], more than 100 µM in assay [8], more than 100 µM in assay [9] and more than 100 µM in [10].
Take `Nc1ncn([C@H]2CC(O)[C@@H](CO)S2)c(=O)n1` (stereo partly drawn): the GI50 is 8.27 µM in assay [1]; 2.27 µM in assay [2]; 20.3 µM in assay [3]; 23.3 µM in [4]; 8.93 µM in assay [5]; 16.7 µM in [6]. For the same compound, the GI50 in assay [7] is 7.05 µM; in [8], 28.9 µM; in assay [9] it was 16.2 µM; in assay [10] it was 2.93 µM. In addition, the TGI in assay [1], in assay [2], in [3], in assay [4], in assay [5] and in assay [6] was more than 100 µM throughout. Besides, the TGI in assay [7], in assay [8], in [9] and in assay [10] was more than 100 µM in each case.
Regarding `CC(=O)c1cc2c(N)c(C(=O)Nc3cccc4ccccc34)sc2nc1C`, the GI50 in assay [1] was 4.03 µM; in [2] it was 1.71 µM; in [3], 21.6 µM; in assay [4], 2.6 µM; in assay [5], 1.75 µM; in assay [6], 1.16 µM. Moreover, the GI50 in assay [7] was 4.22 µM; in assay [8], 0.512 µM; in [9] it was 1.78 µM; in [10], 4.27 µM. Moreover, the TGI is more than 50 µM in [1]; 36.1 µM in assay [2]; more than 50 µM in assay [3]; more than 50 µM in [4]; more than 50 µM in [5]; 3.99 µM in assay [6]. For the same compound, the TGI in assay [7], in assay [8], in assay [9] and in assay [10] was more than 50 µM throughout.
